Read-outs that look alike come from different tables or passages of the source.
What was measured:
[1] = target: T1, human Fpn-GFP fusion protein (Homo sapiens, UniProt Q9NP59); assay: Ferroportin internalization and degradation assay (FACS, HEK-293 cell line #354); type: cell-based
T1 construct: expressed in transfected cells; host or cells: HEK-293 cell line #354 (derivative of HEK-293 Tet-ON Advanced)
T1 sequence (Q9NP59 1-571): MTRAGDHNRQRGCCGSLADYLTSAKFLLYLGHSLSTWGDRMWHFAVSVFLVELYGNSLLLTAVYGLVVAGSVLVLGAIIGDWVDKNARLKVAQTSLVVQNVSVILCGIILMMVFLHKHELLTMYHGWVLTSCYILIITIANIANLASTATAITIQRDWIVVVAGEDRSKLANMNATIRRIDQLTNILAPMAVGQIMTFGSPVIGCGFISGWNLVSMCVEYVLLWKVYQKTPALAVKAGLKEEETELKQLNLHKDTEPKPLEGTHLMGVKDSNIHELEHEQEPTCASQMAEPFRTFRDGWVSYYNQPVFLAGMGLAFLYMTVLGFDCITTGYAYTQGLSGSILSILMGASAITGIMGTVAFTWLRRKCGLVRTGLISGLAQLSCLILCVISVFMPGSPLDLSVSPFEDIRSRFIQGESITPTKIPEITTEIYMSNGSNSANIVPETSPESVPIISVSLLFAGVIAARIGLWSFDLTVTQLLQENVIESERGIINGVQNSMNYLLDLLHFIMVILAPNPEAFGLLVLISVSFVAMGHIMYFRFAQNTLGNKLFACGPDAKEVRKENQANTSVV
Method: HEK-293 cell line #354 (described in 11.3) was used to measure the capacity of the compounds to induce internalization and degradation of ferroportin (Fpn) by fluorescence activated cell sorting (FACS). Growing HEK-293 #354 cells in doxycycline containing media induced expression of human Fpn-GFP fusion protein on the cell surface. […] Small molecular weight Fpn inhibitor compounds were tested for dose-dependent effects on the Fpn-GFP mean fluorescence intensity (MFI) on HEK-293 cell line #354, as described below.
HEK#354 cells were harvested from ca. 80% confluent cultures, seeded at 0.6x10^6 cells/ml in DMEM/F12 GlutaMAX™ medium (Invitrogen, Cat. 31331-028) containing 10% FBS (Clontech, Cat. 631106), 1% Penicillin-Streptomycin (Invitrogen, Cat. 15140-122), 200 µg/ml Hygromycin B (Invitrogen, Cat. 10687-010), Blasticidin 5 µg/ml, (Invitrogen, Cat. R210-01), 4 µg/ml doxycycline (Clontech, Cat. 631311), 50 µl per well of 384 well plates (Greiner; Cat. 781091) and grown at 37° C. with 5% CO2. After overnight incubation, 10 µl/well of dilution series of the test compounds were added in quadruplicates and plates were further incubated overnight at 37° C. with 5% CO2. Cells were washed once with FACS buffer (PBS containing 1% FBS, 2 mM EDTA and 0.05% NaN3), harvested in FACS buffer with 0.5 µg/ml propidium iodide (Sigma, Cat. P4864) and analyzed in a flow cytometer (CANTO^tm II, BD Biosciences) equipped with high throughput sampler. Live HEK#354 cells were gated as propidium iodide negative population and analyzed for expression of Fpn-GFP. MFI of Fpn-GFP of > 2000 live cells for each compound dilution was calculated using FlowJo (Tree Star’s, Oregon) and the potency of the Fpn-inhibitors to induce internalization and degradation of Fpn-GFP was calculated as described for the hepcidin internalization assay. EC50 data of the Compounds (II) and (II′) tested in the ferroportin internalization and degradation assay by FACS are listed in Table 4. The average EC50 value of hepcidin in this assay is 0.004 ± 0.002 µM.

human Fpn = target: T2, human Fpn (Homo sapiens, UniProt Q9NP59); assay: Biophysical ferroportin-hepcidin binding assay (fluorescence polarization); details: TMR-hepcidin, tested as 3HCl-salts, n=2, read-out: Biophysical Ferroportin-Hepcidin Binding (FP) IC50
T2 construct: FLAG (C); made in house; host or cells: Pichia pastoris
T2 sequence (Q9NP59 1-571): T1 sequence (Q9NP59 1-571)
Method: This biophysical assay was developed to confirm inhibition of hepcidin binding to ferroportin (Fpn) more directly. Incubation of TMR-hepcidin with purified human Fpn isolated from Pichia pastoris yeast cells expressing human Fpn with a C-terminal FLAG affinity tag (Bonaccorsi di Patti, 2014) leads to increased fluorescence polarization (FP) of the TMR-hepcidin ligand.
A mixture of […] human Fpn and 30 nM TMR-hepcidin in FP assay buffer containing 50 mM Tris-HCI pH 7.3, 200 mM NaCI, 0.02% DDM, 0.1% BSA was plated into a 384 well black low volume round bottom plate (Corning, Cat. 3677) at […] per well. […] of serial dilutions of test compounds were added in duplicates to reach final Fpn and TMR-hepcidin concentrations of […] and 20 nM, respectively. Plates were incubated for 90 minutes at room temperature and parallel (S) and perpendicular (P) fluorescence was measured in a Synergy H1 fluorescence reader (BioTek). FP values were calculated in mP according to the following formula.
IC50 values were determined with the calculated mP values as described for the hepcidin internalization assay and are listed in Table 2.

[2] = HEK-293 cell line #354, FACS, tested as 3HCl-salts, n=2, read-out: Fpn internalization and degradation (HEK354 FACS) IC50
[3] = average of multiple measurements, HEK-293 #354 FACS, 3HCl-salts, read-out: EC50 (ferroportin internalization and degradation assay)

| DC50 [1, 2] | DC50 [1, 3] | IC50 (human Fpn) | Structure (SMILES) |
| --- | --- | --- | --- |
| 161 nM | 161 nM | 28 nM | O=C(NCc1ncccc1Br)c1coc(CCNCCc2nc3ccccc3[nH]2)n1 [Compound (II′)] |
| 6 nM | – | – | CC[C@H](C)[C@@H]1NC(=O)[C@@H](NC(=O)[C@@H](NC(=O)[C@@H]2CCCN2C(=O)[C@H](Cc2ccccc2)NC(=O)[C@H](Cc2c[nH]cn2)NC(=O)[C@@H](NC(=O)[C@@H](N)CC(=O)O)[C@@H](C)O)[C@@H](C)CC)CSSC[C@@H](C(=O)N[C@@H](CCCCN)C(=O)N[C@H](C(=O)O)[C@@H](C)O)NC(=O)[C@@H]2CSSC[C@@H]3NC(=O)[C@@H]4CSSC[C@H](NC(=O)[C@H](Cc5ccccc5)NC1=O)C(=O)N[C@@H](CSSC[C@H](NC(=O)[C@H](CCCCN)NC(=O)[C@H](CO)NC(=O)[C@H](CCCNC(=N)N)NC(=O)[C@H](Cc1c[nH]cn1)NC3=O)C(=O)NCC(=O)N[C@@H](CCSC)C(=O)N2)C(=O)NCC(=O)N4 [hepcidin, reference compound] |
| 119 nM | 119 nM | 28 nM | O=C(NCc1ncccc1F)c1coc(CCNCCc2nc3ccccc3[nH]2)n1 [Compound (II)] |

From US20230212159A1, “Process for the Production of Ferroportin Inhibitors” (Vifor (International) AG, priority 2020, published 2023)
